Data published in patent US20220211662A1, “METHOD OF TREATING CANCER BY ADMINISTERING AN EPIGALLOCATECHIN GALLATE COMBINED WITH TYROSINE KINASE INHIBITOR” (Yunnan Daye Dihong Biotechnology Co., Ltd., priority 2019, published 2022).

Key:
A431 transplanted tumor = experiment: A431 heterotransplanted tumor model in nude mouse
NCI-H1666 cells = experiment: MTT cell viability, NCI-H1666 cells; assay type: cell-based, human; conditions: 24 hours
From the text: Detection Principle: MTT method to detect cell viability
A container is best wrapped with aluminum foil paper.
Otherwise, it is difficult to reflect the real situation. […] A sample is prevented from being volatilized.

O=C(O[C@@H]1Cc2c(O)cc(O)cc2O[C@@H]1c1cc(O)c(O)c(O)c1)c1cc(O)c(O)c(O)c1 [EGCG, EPIGALLOCATECHIN GALLATE]
body weight of A431 tumor-bearing mouse (A431 transplanted tumor; compared with control group): promote the weight increase

COc1cc2ncnc(Nc3ccc(F)c(Cl)c3)c2cc1OCCCN1CCOCC1 [Gefitinib]
growth of NCI-H1666 cells (NCI-H1666 cells; in the presence of EGF): does not have a significant inhibitory effect
survival rate / growth of NCI-H1666 cells (NCI-H1666 cells; without EGF): significant inhibitory effect
tumor volume growth (A431 transplanted tumor; A431 transplanted tumor, combined use compared with Gefitinib alone treatment group): better inhibitory effect
